Test results taken from publication PMC5589090 (PLoS Medicine, 2017).
Several values for one entry are separate records, joined by “and”; a condition that tells them apart may be missing. Equal entries are not always repeated. Where two headings read alike, the source gives them in different places.

Key:
[1] = cited from earlier work
[2] = cited from earlier work; remark: listed apart in the source
[3] = test system: Salmonella typhimurium tester strain TA100; parameters: method as in ref 78 (a number printed in a supplementary file, which may have a reference list of its own: not looked up in the article's list); details: cited from earlier work
[4] = test system: LINE-1 repetitive element CpG; assay: Methylation level of LINE-1 repetitive element CpG by pyrosequencing in PBMC; assay type: in vivo, human
Description: DNA was purified from peripheral blood mononuclear cells (isolated by Ficoll-Hypaque density centrifugation) using the Wizard Genomic DNA Purification Kit (Promega). DNA was bisulfite-converted using EZ DNA Lightning Methylation kit (Zymo Research). The PCR primers were 10 pmol of 5′- […]-3′ and 10 pmol of biotinylated-5′-[…]-3′. PCR cycling conditions were: cycle temperature of 94°C for 30 seconds, 60°C for 30 seconds, and 72°C for 30 seconds, for 45 cycles to consume all the biotinylated primers. The biotinylated strand was captured on streptavidin sepharose beads (Amersham Biosciences, Uppsala, Sweden) and annealed with the sequencing primer 5′-[…]-3′. The methylation degree of long interspersed nuclear elements (LINE-1) was computed at 3 CpG sites pyrosequenced with the Pyromark Q24 Pyrosequencer (Qiagen) using the dispensation order […].

[5] = rat, in vivo; cited from earlier work
[6] = Blood chemistries and biomarkers of hemolysis, thrombophilia, inflammation (LDH, total bilirubin, D-dimer, CRP); assay type: in vivo, human; details: cohorts 4 and 5
Description: (§1) Blood counts, blood chemistries, total bilirubin, HbF, LDH, and D-dimer levels were standard clinical pathology tests through the CLIA-certified Clinical Pathology Laboratory at the University of Illinois at Chicago.

[7] = parameters: method as in ref 99 (a number printed in a supplementary file, which may have a reference list of its own: not looked up in the article's list); details: cited from earlier work
[8] = cited from earlier work; remark: listed apart in the source
[9] = test system: malignant tumor formation; parameters: method as in Berger MR. Proc Am Ass Cancer Res 1997;38:599; details: 6mg/kg of decitabine; controls 30-40%; ref Berger MR. Proc Am Ass Cancer Res 1997;38:599; cited from earlier work
[10] = parameters: method as in ref 72 (a number printed in a supplementary file, which may have a reference list of its own: not looked up in the article's list); details: cited from earlier work
[11] = test system: thyroid carcinoma; parameters: method as in ref 95 (a number printed in a supplementary file, which may have a reference list of its own: not looked up in the article's list); details: cited from earlier work
[12] = test system: L5178Y mouse lymphoma cells; parameters: method as in ref 75 (a number printed in a supplementary file, which may have a reference list of its own: not looked up in the article's list); details: cited from earlier work
[13] = cited from earlier work; for Cmax: read-out: decitabine Cmax
[14] = Blood counts, clinical pathology (total hemoglobin, reticulocytes, platelets, ANC, ALC, WBC); assay type: in vivo, human; details: cohorts 4 and 5, while total hemoglobin increased
Description: as §1

[15] = per patient, SC 0.2 mg/kg 2x/week, 0.2 mg/kg

In the case of `Nc1ncn([C@H]2C[C@H](O)[C@@H](CO)O2)c(=O)n1` [decitabine, 5-aza-2’-deoxycytidine], the “total hemoglobin (Hb), peak” value ([1]; SC 0.2 mg/kg 2x/week for 12 weeks, five patients, baseline 7.88 ± 0.88) is listed as 9.04 ± 0.77 g/dL, the “Absolute Retic count B/L” value ([1]; baseline, per patient) is listed as 1.65e+11 L⁻¹ and 1.55e+11 L⁻¹ and 1.63e+11 L⁻¹ and 1.96e+11 L⁻¹ and 1.06e+11 L⁻¹ and the “Annexin-V RBC B/L” value ([1]; baseline, per patient) is listed as 0% and 2% and 0.6% and 3.4% and 0.8%. For the same molecule, the “EPO B/L” value ([1]; baseline, per patient) was 197.8 mIU/ml and 25 mIU/ml and 241.4 mIU/ml and 186 mIU/ml and 86.6 mIU/ml, the “HbF B/L” value ([1]; baseline, per patient) was 7 g/dL and 0.1 g/dL and 2.8 g/dL and 4.8 g/dL and 3.6 g/dL and the “Hemoglobin B/L” value ([1]; baseline, per patient) was 8.8 g/dL and 10.7 g/dL and 6.1 g/dL and 7.8 g/dL and 6 g/dL. The “Indirect Bilirubin B/L” value ([1]; baseline, per patient) was 25.7 µmol/L and 104.3 µmol/L and 89 µmol/L and 33 µmol/L and 20 µmol/L, the “Normochromic Normovolumetric Cells B/L” value ([1]; baseline, per patient) was 36% and 67.4% and 65.4% and 63.9% and 61.2% and the “Serum LDH B/L” value ([1]; baseline, per patient) was 893 U/L and 596 U/L and 458 U/L and 192 U/L and 258 U/L. The “genotoxicity (erythrocyte micronucleus, VDJ recombination assay)” value [1] was “without erythrocyte micronucleus or VDJ recombination assay evidence of genotoxicity”, the “Increases in Hb achieved” value ([1]; in two of the five patients) was at least 1.5 g/dL and the “Absolute Retic count Nadir” value [1, 15] was 1.35e+11 L⁻¹ and 1.6e+11 L⁻¹ and 1.16e+11 L⁻¹ and 1.25e+11 L⁻¹ and 7.9e+10 L⁻¹. The “Absolute Retic count Wk 12” value [1, 15] was 1.35e+11 L⁻¹ and 1.6e+11 L⁻¹ and 1.16e+11 L⁻¹ and 1.45e+11 L⁻¹ and 7.9e+10 L⁻¹, the “Annexin-V RBC Nadir” value [1, 15] was 0% and 0.1% and 0.4% and the “Annexin-V RBC Wk 12” value [1, 15] was 0.5% and 0.7% and 0.1% and 2.6% and 1.1%. The “EPO Nadir” value [1, 15] was 117.2 mIU/ml and 17.1 mIU/ml and 131.4 mIU/ml and 180.7 mIU/ml and 71.5 mIU/ml, the “EPO Wk 12” value [1, 15] was 117.2 mIU/ml and 24.4 mIU/ml and 238.5 mIU/ml and 340.5 mIU/ml and 71.5 mIU/ml and the “HbF Peak” value [1, 15] was 7.5 g/dL and 0.7 g/dL and 3.5 g/dL and 5.6 g/dL and 4.1 g/dL. The “HbF Wk 12” value [1, 15] was 7.1 g/dL and 0.7 g/dL and 3.4 g/dL and 5.6 g/dL and 3.6 g/dL, the “Hemoglobin Peak” value [1, 15] was 9.4 g/dL and 11.8 g/dL and 7.7 g/dL and 8.7 g/dL and 7.6 g/dL and the “Hemoglobin Wk 12” value [1, 15] was 9.4 g/dL and 11.8 g/dL and 6.4 g/dL and 8.7 g/dL and 7.5 g/dL. The “Indirect Bilirubin Nadir” value [1, 15] was 27.4 µmol/L and 83.8 µmol/L and 48 µmol/L and 18 µmol/L and 8 µmol/L, the “Indirect Bilirubin Wk 12” value [1, 15] was 30.8 µmol/L and 83.8 µmol/L and 48 µmol/L and 33 µmol/L and 10 µmol/L and the “Neutrophil count Nadir” value [1, 15] was 2.82e+09 L⁻¹ and 2.2e+09 L⁻¹ and 5.2e+09 L⁻¹ and 2.1e+09 L⁻¹ and 4.5e+09 L⁻¹. For the same molecule, the “Neutrophil count Wk 12” value [1, 15] was 4.62e+09 L⁻¹ and 2.2e+09 L⁻¹ and 7.9e+09 L⁻¹ and 1.03e+10 L⁻¹ and 5.7e+09 L⁻¹, the “Normochromic Normovolumetric Cells Peak” value [1, 15] was 45.9% and 70% and 70.9% and 72.4% and the “Normochromic Normovolumetric Cells Wk 12” value [1, 15] was 45.9% and 69% and 70.5% and 66.4% and 68.1%. The “Platelet count Peak” value [1, 15] was 2.96e+11 L⁻¹ and 1.038e+12 L⁻¹ and 1.265e+12 L⁻¹ and 8.01e+11 L⁻¹ and 1.301e+12 L⁻¹, the “Platelet count Wk 12” value [1, 15] was 2.81e+11 L⁻¹ and 1.038e+12 L⁻¹ and 1.265e+12 L⁻¹ and 7.56e+11 L⁻¹ and 1.301e+12 L⁻¹ and the “Serum LDH Nadir” value [1, 15] was 660 U/L and 541 U/L and 260 U/L and 149 U/L and 204 U/L. The “Serum LDH Wk 12” value [1, 15] was 660 U/L and 556 U/L and 324 U/L and 167 U/L and 204 U/L, the tolerability ([2]; 124 MDS subjects) was “well tolerated” and the major cytogenetic responses ([2]; MDS subjects with abnormal cytogenetics, 40-50 mg/m^2 3X/wk, courses every 6-8 weeks) was 31%. For the same molecule, the “unusual patterns of cytogenetic instabilities” value ([2]; MDS subjects) was “no unusual patterns of cytogenetic instabilities were found”, the treatment related deaths ([2]; MDS, 45 mg/m^2/day for 3 days every 6 weeks, ref Saba et al, 2004) was “no treatment related deaths” and the secondary malignancies ([2]; over 1,000 patients with hematologic or solid tumors) was “no reports of secondary malignancies”. For the same molecule, the “side effects of chronic metronomic very-low-dose decitabine” value ([2]; patients with myeloid malignancies, treated for years) was “without significant side effects”, the mutagenicity [3] was “weak mutagen” and the “LINE-1 repetitive element CpG methylation decrease in PBMC” value ([4]; decitabine […] (cohort 5) after THU 10 mg/kg 2X/week) was “approximately 10%”. The “LINE-1 CpG methylation decrease in PBMC” value ([4]; lower decitabine doses (cohorts 1-4)) was “not with lower decitabine doses”, the embryo toxicity [5] was “fetal resorption and fetal defects” and the “serum LDH” value ([6]; biomarker of hemolysis) was “improved”. The total bilirubin ([6]; biomarker of hemolysis) was “improved”, the CRP levels ([6]; biomarker of inflammation) was “improved” and the D-dimer ([6]; biomarker of thrombophilia) was “improved”. For the same molecule, the “testicular weight, sperm counts and fertility” value [7] was “dose-dependent decrease in testicular weight, decline in sperm counts and reduced fertility”, the “plasma t ½” value ([8]; Fig 1C, decitabine alone) was under 15 min and the “decitabine half-life in vivo” value ([8]; abbreviated by CDA, ref 27;28) was under 20 min. For the same molecule, the oral bioavailability ([8]; decitabine alone) was “negligible”, the plasma half-life ([8]; decitabine alone) was “only minutes” and the Cmax ([8]; read-out: Cmax that correlates with nucleotide pool imbalance, DNA-damage, and cytotoxicity) was over 500 nM. For the same molecule, the “rate of malignant tumor formation” value [9] was 74-94%, the “Max F-cell%” value ([10]; SC decitabine, mean ± SD, r3 HU non-responders (n=3), r4 HU responders (n=5), r5 all patients (n=8)) was 55.1 ± 11.1% and 81.2 ± 4.4% and 71.4 ± 6.5% and the recovery from neutropenia ([10]; all subjects) was “within a week”. The “Pre-tx HbF%” value ([10]; baseline, mean ± SD, r3 HU non-responders, r4 HU responders, r5 all patients) was 2.4 ± 1.6% and 9.0 ± 2.5% and 6.5 ± 1.4%, the “local toxicity at SQ injection sites” value [10] was “No local toxicity” and the “bone marrow aspirate spicule cellularity with treatment” value ([10]; four subjects) was “no appreciable decrease”. The “Total Hb, peak” value ([10]; mean ± 2SD, pre-treatment 7.6 ± 2) was 9.6 ± 1.8, the “Adh. to laminin, Pretherapy” value ([10]; mean ± SE, baseline) was 3470 ± 500 RBCs/mm^2 and the “Adhesion to TSP, Pretherapy” value ([10]; mean ± SE, baseline) was 1570 ± 170 RBCs/mm^2. The “CRP, Pretherapy” value ([10]; mean ± SE, baseline) was 1.25 ± 0.27 mg/dL, the “D-Dimer, Pretherapy” value ([10]; mean ± SE, baseline) was 490 ± 90 ng/mL and the “F1+2, Pretherapy” value ([10]; mean ± SE, baseline) was 1.75 ± 0.22 nmol/L. The “TAT, Pretherapy” value ([10]; mean ± SE, baseline) was 7.0 ± 1.7 µg/L, the “VWFpp, Pretherapy” value ([10]; mean ± SE, baseline) was 196 ± 26 u/dL and the “sVCAM, Pretherapy” value ([10]; mean ± SE, baseline) was 1170 ± 140 ng/mL. For the same molecule, the “Adh. to laminin, Post Cycle 1” value ([10]; mean ± SE) was 1950 ± 300 RBCs/mm^2, the “Adh. to laminin, Post Cycle 2” value ([10]; mean ± SE) was 1570 ± 210 RBCs/mm^2 and the “Adhesion to TSP, Post Cycle 1” value ([10]; mean ± SE) was 690 ± 150 RBCs/mm^2. The “Adhesion to TSP, Post Cycle 2” value ([10]; mean ± SE) was 910 ± 160 RBCs/mm^2, the “CRP, Post Cycle 1” value ([10]; mean ± SE) was 1.19 ± 0.34 mg/dL and the “CRP, Post Cycle 2” value ([10]; mean ± SE) was 0.82 ± 0.26 mg/dL. The “D-Dimer, Post Cycle 1” value ([10]; mean ± SE) was 320 ± 50 ng/mL, the “D-Dimer, Post Cycle 2” value ([10]; mean ± SE) was 300 ± 50 ng/mL and the “F1+2, Post Cycle 1” value ([10]; mean ± SE) was 1.56 ± 0.16 nmol/L. For the same molecule, the “F1+2, Post Cycle 2” value ([10]; mean ± SE) was 1.41 ± 0.15 nmol/L, the “TAT, Post Cycle 1” value ([10]; mean ± SE) was 8.6 ± 2.3 µg/L and the “TAT, Post Cycle 2” value ([10]; mean ± SE) was 5.2 ± 0.9 µg/L. For the same molecule, the “VWFpp, Post Cycle 1” value ([10]; mean ± SE) was 156 ± 28 u/dL, the “VWFpp, Post Cycle 2” value ([10]; mean ± SE) was 144 ± 13 u/dL and the “sVCAM, Post Cycle 1” value ([10]; mean ± SE) was 930 ± 100 ng/mL. For the same molecule, the “sVCAM, Post Cycle 2” value ([10]; mean ± SE) was 840 ± 100 ng/mL, the “nadir ANC, NCI grade 4 neutropenia” value ([10]; one patient) was 400 µL⁻¹ and the “absolute reticulocyte count (ARC) during treatment” value ([10]; p=0.0006) was “decreased”. The “total bilirubin during treatment” value ([10]; p=0.01) was “decreased”, the “nadir ANC, grade 3 neutropenia” value ([10]; two patients) was 800 µL⁻¹ and the thyroid carcinoma promotion [11] was “promoted goitrogen induced, but not radiation induced, thyroid carcinoma”. For the same molecule, the “mutations as measured by 6TG resistance” value [12] was “did not produce mutations”, the “mutations as measured by tri-fluorothymidine resistance” value ([12]; thymidine kinase locus) was “did induce mutations” and the lethal toxicity ([13]; decitabine 1.0 mg/kg + THU 167 mg/kg 2X/week for 9 weeks, ref Investigators Brochure) was “lethal toxicity in eight females and one male”. For the same molecule, the “toxicity in bone marrow, lymphoid and testicular tissue” value ([13]; decitabine 0.2 and 0.4 mg/kg + THU, ref Investigators Brochure) was “reversible toxicity”, the Cmax ([13]; low dose 0.2 mg/kg + THU 167 mg/kg oral gavage 2X/week, ref Investigators Brochure) was 1500 nM and the Cmax ([13]; mid dose 0.4 mg/kg + THU 167 mg/kg oral gavage 2X/week, ref Investigators Brochure) was 2900 nM. The Cmax ([13]; mouse, in vivo) was 8600 nM, the NOAEL ([13]; ref Investigators Brochure) was “no NOAEL” and the “decrease of decitabine Cmax and AUC cal,0→180 on day 58 compared to day 1” value ([13]; ref Investigators Brochure) was ~ 30%. The reticulocyte counts [14] was “decreased”.
